Experimental data as given in BindingDB's records for doi:10.7270/Q2319T8T (The Scripps Research Institute Molecular Screening Center, 2007).

Molecular target: Steroidogenic factor 1 (Homo sapiens, UniProt Q13285)
Test: SF-1 inhibitor potency, dose response, cell-based, CHO-K1, Gal4-SF-1 LBD, luciferase luminescence (AID 600)
[1] = inactive by the depositor's call

Chain of Steroidogenic factor 1 (Q13285 whole entry, the tested form may be a part): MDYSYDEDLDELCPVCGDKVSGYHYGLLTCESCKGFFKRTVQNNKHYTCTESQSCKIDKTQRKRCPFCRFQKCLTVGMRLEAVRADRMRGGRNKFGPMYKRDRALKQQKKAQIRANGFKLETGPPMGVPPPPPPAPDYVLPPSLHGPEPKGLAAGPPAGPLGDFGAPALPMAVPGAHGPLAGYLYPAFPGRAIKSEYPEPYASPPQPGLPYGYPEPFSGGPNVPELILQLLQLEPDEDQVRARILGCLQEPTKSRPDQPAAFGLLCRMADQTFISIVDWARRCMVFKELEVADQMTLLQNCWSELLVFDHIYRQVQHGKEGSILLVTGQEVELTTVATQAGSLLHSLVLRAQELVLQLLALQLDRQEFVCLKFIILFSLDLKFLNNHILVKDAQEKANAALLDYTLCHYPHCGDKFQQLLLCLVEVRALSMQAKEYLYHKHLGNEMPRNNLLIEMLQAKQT

SMILES | IC50 | IC50 [1]
Cn1c(SC2=CS(=O)(=O)c3ccccc32)nc2ccccc21 [2-(1,1-Dioxo-1H-1lambda*6*-benzo[b]thiophen-3-ylsulfanyl)-1-methyl-1H-benzoimidazole] | > 3.67 µM | 
O=c1c2ccccc2cnn1-c1nc2ccccc2s1 [2-(1,3-benzothiazol-2-yl)-1-phthalazinone] | 2.12 µM | 
c1ccc2nc(-c3nc4ccccc4o3)ccc2c1 [2-(1,3-benzoxazol-2-yl)quinoline] | 6.81 µM | 
COc1ccc(OC)c(NC(=O)CSc2nnnn2-c2ccc3c(c2)OCO3)c1 [2-(1-Benzo[1,3]dioxol-5-yl-1H-tetrazol-5-ylsulfanyl)-N-(2,5-dimethoxy-phenyl)-acetamide] | 2.35 µM | 
CCn1c(C)nc2cc(-c3nc4n(n3)Cc3ccccc3-4)ccc21 [2-(1-ethyl-2-methyl-5-benzimidazolyl)-5H-[1,2,4]triazolo[5,1-a]isoindole] | < 0.00503 µM | 
CCN1C=CC(=C2C(=O)c3ccccc3C2=O)C=C1 [2-(1-ethyl-4-pyridinylidene)indene-1,3-dione] | 0.954 µM | 
O=C1c2ccccc2C(=O)C1c1nccc2ccccc12 [2-(1-isoquinolinyl)indene-1,3-dione] | 4.03 µM | 
CC1(C)CC(=O)C2=C(C1)Oc1nc3ccccc3cc1C2C(C#N)C#N (configuration not stated) [2-(1-keto-3,3-dimethyl-4,12-dihydro-2H-chromeno[2,3-b]quinolin-12-yl)malononitrile] | 7.53 µM | 
c1c2c(cc3sc(N4CCCCC4)nc13)OCCO2 [2-(1-piperidinyl)-6,7-dihydro-[1,4]dioxino[2,3-f][1,3]benzothiazole] | 3.91 µM | 
CCCN1C=CC(=C2C(=O)c3ccccc3C2=O)C=C1 [2-(1-propyl-4-pyridinylidene)indene-1,3-dione] | 0.363 µM | 
Cc1cnc(NC(=O)COc2ccccc2Cl)s1 [2-(2-chloranylphenoxy)-N-(5-methyl-1,3-thiazol-2-yl)ethanamide] | > 1.22 µM | 
Cn1c(-c2ccco2)nc2cc3ccccc3cc21 [2-(2-furanyl)-3-methylbenzo[f]benzimidazole] |  | 10.4 µM
CCCOc1ccc(-c2nnc(-c3ccco3)o2)cc1 [2-(2-furanyl)-5-(4-propoxyphenyl)-1,3,4-oxadiazole] | > 3.67 µM | 
CCOc1ccc(-c2nnc(-c3ccco3)o2)cc1 [2-(2-furyl)-5-p-phenetyl-1,3,4-oxadiazole] | 5.29 µM | 
COc1ccccc1CC(=O)N1CCN(c2cccc(C(F)(F)F)c2)CC1 [2-(2-methoxyphenyl)-1-[4-[3-(trifluoromethyl)phenyl]-1-piperazinyl]ethanone] |  | 19.7 µM
c1ccc2c(c1)CCN(c1nc3cc4c(cc3s1)OCCO4)C2 [2-(3,4-dihydro-1H-isoquinolin-2-yl)-6,7-dihydro-[1,4]dioxino[2,3-f][1,3]benzothiazole] | 5.34 µM | 
COc1ccc(CC(=O)Nc2cccc(-c3nnc(-c4cccc(C)c4)o3)c2)cc1OC [2-(3,4-dimethoxyphenyl)-N-[3-[5-(3-methylphenyl)-1,3,4-oxadiazol-2-yl]phenyl]acetamide] | > 3.67 µM | 
COc1ccc(CC(=O)Nc2ccc(-c3nnc(-c4ccccc4)o3)cc2)cc1OC [2-(3,4-dimethoxyphenyl)-N-[4-(5-phenyl-1,3,4-oxadiazol-2-yl)phenyl]acetamide] | 2.44 µM | 
CCOC(=O)c1cnc(-n2nc(C)cc2C)nc1NC(C)c1ccccc1 (configuration not stated) [2-(3,5-dimethyl-1-pyrazolyl)-4-(1-phenylethylamino)-5-pyrimidinecarboxylic acid ethyl ester] | 6.88 µM | 
CCOc1ccc(Nc2cc(C)nc(-n3nc(C)cc3C)n2)cc1 [2-(3,5-dimethyl-1-pyrazolyl)-N-(4-ethoxyphenyl)-6-methyl-4-pyrimidinamine] | 7.83 µM | 
COc1ccc(Nc2cc(C)nc(-n3nc(C)cc3C)n2)cc1 [2-(3,5-dimethyl-1-pyrazolyl)-N-(4-methoxyphenyl)-6-methyl-4-pyrimidinamine] |  | 12.5 µM
Nc1cccc(-c2nc3ccc(N)cc3s2)c1 [2-(3-Amino-phenyl)-benzothiazol-6-ylamine] | > 3.67 µM | 
Cc1csc(NC(=O)Cc2nn(C)c(=O)c3ccccc23)n1 [2-(3-methyl-4-oxidanylidene-phthalazin-1-yl)-N-(4-methyl-1,3-thiazol-2-yl)ethanamide] |  | 34.3 µM
O=C(CSC1=NCCS1)Nc1ccnc2ccccc12 [2-(4,5-dihydro-1,3-thiazol-2-ylsulfanyl)-N-quinolin-4-yl-ethanamide] |  | 15.1 µM
Cc1nnc(Sc2nc(Sc3nnc(C)s3)nc(N3CCN(C)CC3)n2)s1 [2-(4-Methyl-piperazin-1-yl)-4,6-bis-(5-methyl-[1,3,4]thiadiazol-2-ylsulfanyl)-[1,3,5]triazine] | 2.64 µM | 
O=C(Cc1ccc(Cl)cc1)Nc1ccc(-c2nnc(-c3ccco3)o2)cc1 [2-(4-chlorophenyl)-N-[4-[5-(2-furanyl)-1,3,4-oxadiazol-2-yl]phenyl]acetamide] | 9.18 µM | 

SMILES | IC50 | IC50 [1]
COc1ccc(-c2cc3nc4n(c(=O)c3s2)CCC4)cc1 [2-(4-methoxyphenyl)-6,7-dihydropyrrolo[1,2-a]thieno[3,2-d]pyrimidin-9(5H)-one] | 4.32 µM | 
COc1ccc(-c2cc3nc4n(c(=O)c3s2)CCOC4)cc1 [2-(4-methoxyphenyl)-7,8-dihydro-5H-thieno[1,2]pyrimido[4,5-a][1,4]oxazin-10-one] | 6.7 µM | 
COc1ccc(CC(=O)Nc2ccc(-c3nnc(-c4ccccc4)o3)cc2)cc1 [2-(4-methoxyphenyl)-N-[4-(5-phenyl-1,3,4-oxadiazol-2-yl)phenyl]acetamide] |  | 18.3 µM
CC1CCN(c2nc3ccc(C(=O)O)cc3s2)CC1 [2-(4-methyl-1-piperidinyl)-1,3-benzothiazole-6-carboxylic acid] | 2.25 µM | 
c1c2c(cc3sc(N4CCOCC4)nc13)OCCO2 [2-(4-morpholinyl)-6,7-dihydro-[1,4]dioxino[2,3-f][1,3]benzothiazole] | > 3.67 µM | 
Cc1ccc(N2C(=O)c3ccccc3C2O)nc1 (configuration not stated) [2-(5-methylpyridin-2-yl)-3-oxidanyl-3H-isoindol-1-one] | 8.67 µM | 
CCOc1ccc(-c2nc(CSCC(=O)NCc3ccco3)c(C)o2)cc1 [2-({[2-(4-ethoxyphenyl)-5-methyl-1,3-oxazol-4-yl]methyl}thio)-N-(2-furylmethyl)acetamide] | 0.189 µM | 
CCOc1ccc(-c2nc(CSCC(=O)NCCN3CCOCC3)c(C)o2)cc1 [2-({[2-(4-ethoxyphenyl)-5-methyl-1,3-oxazol-4-yl]methyl}thio)-N-(2-morpholin-4-ylethyl)acetamide] | 4.36 µM | 
CCc1ccc(-c2nc(CSCC(=O)NCCCN3CCCC3=O)c(C)o2)cc1 [2-({[2-(4-ethylphenyl)-5-methyl-1,3-oxazol-4-yl]methyl}thio)-N-[3-(2-oxopyrrolidin-1-yl)propyl]acetamide] | 4.32 µM | 
COc1cc(CC(NC(C)=O)C(=O)NC2CCN(c3nc(C)cc(C)c3C#N)CC2)cc(OC)c1 (configuration not stated) [2-Acetylamino-N-(3'-cyano-4',6'-dimethyl-3,4,5,6-tetrahydro-2H-[1,2']bipyridinyl-4-yl)-3-(3,5-dimethoxy-phenyl)-propionamide] | > 33 µM | 
Nc1nc(Cl)nc2c1ncn2[C@H]1C[C@H](O)[C@@H](CO)O1 [2-CHLORO-2'-DEOXYADENOSINE] | 0.454 µM | 
Cc1cc(C)n(-c2nc(NC(C)(C)C)nc(NC(C)(C)C)n2)n1 [2-N,4-N-ditert-butyl-6-(3,5-dimethylpyrazol-1-yl)-1,3,5-triazine-2,4-diamine] | 8.2 µM | 
CCCCOc1ccccc1NC(=O)Cn1c(-c2nonc2N)nc2ccccc21 [2-[2-(4-amino-1,2,5-oxadiazol-3-yl)-1-benzimidazolyl]-N-(2-butoxyphenyl)acetamide] | > 3.67 µM | 
CN1CCN(C(=O)COc2ccc(-c3nc4ccccc4s3)cc2)CC1 [2-[4-(1,3-benzothiazol-2-yl)phenoxy]-1-(4-methyl-1-piperazinyl)ethanone] | 7.32 µM | 
Cc1cc(N2CCN(c3nc4ccccc4s3)CC2)n2ncnc2n1 [2-[4-(5-methyl-[1,2,4]triazolo[1,5-a]pyrimidin-7-yl)-1-piperazinyl]-1,3-benzothiazole] |  | 22.9 µM
c1ccc(-c2noc(-c3ccc4c(c3)OCO4)n2)nc1 [2-[5-(1,3-benzodioxol-5-yl)-1,2,4-oxadiazol-3-yl]pyridine] | 1.36 µM | 
c1ccc(-c2noc(-c3ccc4ccccc4c3)n2)nc1 [2-[5-(2-naphthyl)-1,2,4-oxadiazol-3-yl]pyridine] | 0.7 µM | 
Clc1cccc(-c2nc(-c3ccccn3)no2)c1 [2-[5-(3-Chloro-phenyl)-[1,2,4]oxadiazol-3-yl]-pyridine] | > 3.67 µM | 
O=S1(=O)C=C(Sc2nc3ccccc3s2)c2ccccc21 [2-[(1,1-dioxido-1-benzothien-3-yl)thio]-1,3-benzothiazole] | 0.713 µM | 
O=C(CSc1nnnn1C1CC2CCC1C2)Nc1ccnc2ccccc12 (configuration not stated) [2-[(1-bicyclo[2.2.1]hept-2-yl-1H-tetrazol-5-yl)thio]-N-4-quinolinylacetamide] | 0.977 µM | 
COC(=O)c1sc(NC(=O)c2ccc(OC)cc2OC)nc1C [2-[(2,4-dimethoxybenzoyl)amino]-4-methyl-thiazole-5-carboxylic acid methyl ester] | 2.86 µM | 
Cc1cc(C=c2sc3nc4ccccc4n3c2=O)c(C)n1-c1ccccn1 [2-[(2,5-dimethyl-1-pyridin-2-yl-pyrrol-3-yl)methylidene]-[1,3]thiazolo[3,2-a]benzimidazol-1-one] | > 0.00503 µM | 
Cc1cccc(N2CCN(C(=O)CSCc3c(C)noc3C)CC2)c1C [2-[(3,5-dimethyl-1,2-oxazol-4-yl)methylsulfanyl]-1-[4-(2,3-dimethylphenyl)piperazin-1-yl]ethanone] | 0.876 µM | 
CCc1ccc(-c2nc(CSCC(=O)N3CCN(c4ncccn4)CC3)c(C)o2)cc1 [2-[[2-(4-ethylphenyl)-5-methyl-1,3-oxazol-4-yl]methylsulfanyl]-1-(4-pyrimidin-2-ylpiperazin-1-yl)ethanone] |  | 37.1 µM
Cc1cccc2cc(C#N)c(SCC(=O)N3CC(=O)Nc4ccccc43)nc12 [2-[[2-keto-2-(3-keto-2,4-dihydroquinoxalin-1-yl)ethyl]thio]-8-methyl-quinoline-3-carbonitrile] | > 3.67 µM | 
CCOC(=O)CSc1nc2cc(C(=O)NCc3ccco3)ccc2c(=O)n1-c1ccc(F)cc1 [2-[[3-(4-fluorophenyl)-7-(2-furfurylcarbamoyl)-4-keto-quinazolin-2-yl]thio]acetic acid ethyl ester] | > 11 µM | 
